Where “and” joins values, the source holds several entries; their conditions need not be identical. Identical values can stand only once. Toxic doses and inconclusive results are not listed. How the source made its calls: active means survival T/C of 150% or more; inactive means T/C below 125% in these data.
System: P388 leukemia ip, CD2F1 mice, survival T/C
Test: NCI In Vivo Anticancer Drug Screen. Data for tumor model P388 Leukemia (intraperitoneal) in CD2F1 (CDF1) mice
Details: endpoint: median survival time, higher = longer survival
How it was run: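 Mice carrying the transplanted tumor received test compound or vehicle. Survival was recorded in each group, and the value is the treated-group measurement divided by that of the vehicle-treated control group.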

[1] = dose: 100.0 mg/kg/injection, schedule: Q01DX005 (ip), vehicle: saline with Tween-80
[2] = dose: 200.0 mg/kg/injection, schedule: Q01DX005 (ip), vehicle: saline with Tween-80
[3] = dose: 60.0 mg/kg/injection, schedule: Q01DX005 (ip), vehicle: saline with Tween-80
[4] = dose: 120.0 mg/kg/injection, schedule: Q01DX005 (ip), vehicle: saline with Tween-80
[5] = dose: 240.0 mg/kg/injection, schedule: Q01DX005 (ip), vehicle: saline with Tween-80
[6] = dose: 7.5 mg/kg/injection, schedule: Q01DX005 (ip), vehicle: saline with Tween-80
[7] = dose: 15.0 mg/kg/injection, schedule: Q01DX005 (ip), vehicle: saline with Tween-80
[8] = dose: 30.0 mg/kg/injection, schedule: Q01DX005 (ip), vehicle: saline with Tween-80
[9] = dose: 50.0 mg/kg/injection, schedule: Q01DX009 (ip), vehicle: saline with Tween-80
[10] = dose: 100.0 mg/kg/injection, schedule: Q01DX009 (ip), vehicle: saline with Tween-80
[11] = dose: 200.0 mg/kg/injection, schedule: Q01DX009 (ip), vehicle: saline with Tween-80
[12] = dose: 50.0 mg/kg/injection, schedule: Q01DX005 (ip), vehicle: saline with Tween-80
[13] = dose: 100.0 mg/kg/injection, schedule: Q04DX003 (ip), vehicle: Klucel (hydroxypropylcellulose) (HPC)
[14] = dose: 200.0 mg/kg/injection, schedule: Q04DX003 (ip), vehicle: Klucel (hydroxypropylcellulose) (HPC)
[15] = dose: 400.0 mg/kg/injection, schedule: Q04DX003 (ip), vehicle: Klucel (hydroxypropylcellulose) (HPC)
[16] = dose: 12.5 mg/kg/injection, schedule: Q01DX009 (ip), vehicle: saline with Tween-80
[17] = dose: 25.0 mg/kg/injection, schedule: Q01DX009 (ip), vehicle: saline with Tween-80
[18] = dose: 50.0 mg/kg/injection, schedule: Q01DX009 (ip), vehicle: saline
[19] = dose: 60.0 mg/kg/injection, schedule: Q01DX005 (ip), vehicle: Klucel (hydroxypropylcellulose) (HPC)
[20] = dose: 120.0 mg/kg/injection, schedule: Q01DX005 (ip), vehicle: Klucel (hydroxypropylcellulose) (HPC)
[21] = dose: 50.0 mg/kg/injection, schedule: Q04DX003 (ip), vehicle: Klucel (hydroxypropylcellulose) (HPC)

Measured: T/C

CN(C=O)C(C(=O)Nc1cccc2c(OC(=O)C(N(C)C=O)(N(C)C=O)N(C)C=O)c(N=Nc3ccc(S(=O)(=O)Nc4nccs4)cc3)cc(N=Nc3ccc(S(=O)(=O)Nc4nccs4)cc3)c12)(N(C)C=O)N(C)C=O (tested in a mixture with another compound)
inactive: [1] 114 % of control | [2] 115 % of control | dose: 500.0 mg/kg/injection, schedule: Q01DX001 (ip), vehicle: saline with Tween-80 109 % of control | dose: 1000.0 mg/kg/injection, schedule: Q01DX001 (ip), vehicle: saline with Tween-80 105 % of control | dose: 2000.0 mg/kg/injection, schedule: Q01DX001 (ip), vehicle: saline with Tween-80 113 % of control

O=Nc1c2ccccc2c(NO)c2ccccc12
inactive: dose: 100.0 mg/kg/injection, schedule: Q04DX002 (ip), vehicle: saline with Tween-80 94 % of control | dose: 200.0 mg/kg/injection, schedule: Q04DX002 (ip), vehicle: saline with Tween-80 92 % of control | dose: 400.0 mg/kg/injection, schedule: Q04DX002 (ip), vehicle: saline with Tween-80 98 % of control

COC(=O)CC(CCCCCCCCCCCCC(C)C)OC(C)=O (stereo not drawn)
inactive: dose: 8.13 mg/kg/injection, schedule: Q01DX005 (ip), vehicle: Klucel (hydroxypropylcellulose) (HPC) 94 % of control | dose: 16.25 mg/kg/injection, schedule: Q01DX005 (ip), vehicle: Klucel (hydroxypropylcellulose) (HPC) 96 % of control | dose: 32.5 mg/kg/injection, schedule: Q01DX005 (ip), vehicle: Klucel (hydroxypropylcellulose) (HPC) 99 % of control | dose: 65.0 mg/kg/injection, schedule: Q01DX005 (ip), vehicle: Klucel (hydroxypropylcellulose) (HPC) 112 % of control

CCOC(=O)C1=CC2CCOC2O1 (stereo not drawn)
inactive: [3] 95 % of control | [4] 95 % of control | [5] 101 % of control

CCCCCCCCCCCCCCCCC1=C(C(=O)OC)NC(N)=NC1O (stereo not drawn)
inactive: [6] 103 % of control | [7] 100 % of control | [8] 102 % of control | [3] 103 % of control | [4] 103 % of control | dose: 600.0 mg/kg/injection, schedule: Q01DX005 (ip), vehicle: saline with Tween-80 106 % of control

COc1ccc2c(c1OC)C(=O)OC2c1cc(Br)c(O)c(C2OC(=O)c3c2ccc(OC)c3OC)c1 (stereo not drawn)
inactive: [9] 90 % of control | [10] 86 % of control | dose: 100.0 mg/kg/injection, schedule: Q04DX003 (ip), vehicle: saline 87 % of control | dose: 400.0 mg/kg/injection, schedule: Q04DX003 (ip), vehicle: saline 87 % of control

Cc1cc([N+](=O)[O-])c(C)c(Br)c1C
inactive: [9] 90 % of control | [10] 92 % of control | [11] 99 % of control

Oc1ccccc1C=Nc1ccccc1C(F)(F)F
inactive: [9] 101 % of control | [10] 103 % of control | [11] 95 % of control | dose: 400.0 mg/kg/injection, schedule: Q01DX009 (ip), vehicle: saline with Tween-80 97 % of control

CC1(CCc2ccc(N(CCCl)CCCl)cc2)NC(=O)NC1=O (stereo not drawn)
inactive: dose: 3.13 mg/kg/injection, schedule: Q01DX009 (ip), vehicle: Klucel (hydroxypropylcellulose) (HPC) 105 % of control | dose: 6.25 mg/kg/injection, schedule: Q01DX009 (ip), vehicle: Klucel (hydroxypropylcellulose) (HPC) 103 % of control | dose: 12.5 mg/kg/injection, schedule: Q01DX009 (ip), vehicle: Klucel (hydroxypropylcellulose) (HPC) 103 % of control | dose: 50.0 mg/kg/injection, schedule: Q01DX009 (ip), vehicle: Klucel (hydroxypropylcellulose) (HPC) 103 % of control

C=COC(=O)C(Cc1ccccc1)NC(=O)OCc1ccccc1 (stereo not drawn)
inactive: dose: 12.5 mg/kg/injection, schedule: Q01DX005 (ip), vehicle: saline with Tween-80 106 % of control | dose: 25.0 mg/kg/injection, schedule: Q01DX005 (ip), vehicle: saline with Tween-80 100 % of control | [12] 103 % of control | [1] 103 % of control | [2] 100 % of control

CC(C)SC(=S)Nc1ccc(F)cc1
inactive: dose: 50.0 mg/kg/injection, schedule: Q01DX009 (ip), vehicle: suspension in saline 101 % of control | dose: 100.0 mg/kg/injection, schedule: Q01DX009 (ip), vehicle: suspension in saline 101 % of control | dose: 200.0 mg/kg/injection, schedule: Q01DX009 (ip), vehicle: suspension in saline 107 % of control

CC(C)CCNCC(N)C(=O)O (stereo not drawn)
inactive: [13] 100 % of control | [14] 98 % of control | [15] 99 % of control

OC(c1ccccc1I1OC(C(F)(F)F)(C(F)(F)F)c2ccccc21)(C(F)(F)F)C(F)(F)F (tested in a mixture with another compound)
inactive: dose: 1.56 mg/kg/injection, schedule: Q01DX005 (ip), vehicle: Klucel (hydroxypropylcellulose) (HPC) 99 % of control | dose: 3.12 mg/kg/injection, schedule: Q01DX005 (ip), vehicle: Klucel (hydroxypropylcellulose) (HPC) 93 % of control | dose: 6.25 mg/kg/injection, schedule: Q01DX005 (ip), vehicle: Klucel (hydroxypropylcellulose) (HPC) 98 % of control

Clc1ccccc1-c1nnc(-c2cccc(-c3nnc(-c4ccccc4Cl)s3)c2)s1
inactive: [12] 91 % of control | [1] 89 % of control | [2] 90 % of control

O=[N+]([O-])c1c(Sc2ccccc2)ncnc1Sc1ccccc1
inactive: [16] 100 % of control | [17] 100 % of control | [9] 91 % of control | [18] 95 % of control

CCCCCOc1ccc(C(=O)/C(Br)=C/C(=O)O)cc1
inactive: [16] 104 % of control | [17] 109 % of control | [9] 123 % of control

CNC(=O)Nc1ccc(/C(C)=N/NC(N)=S)cc1
inactive: [3] 96 % of control | [4] 89 % of control

CCOC(=O)C1=C(C(C)=O)C(c2cccc([N+](=O)[O-])c2)C(C(C)=O)=C(C(=O)OCC)N1
inactive: [19] 98 % of control | [20] 88 % of control | dose: 240.0 mg/kg/injection, schedule: Q01DX005 (ip), vehicle: Klucel (hydroxypropylcellulose) (HPC) 95 % of control

C=CC1CC[N-]CC1.[Cl][Cu][Cl]
inactive: dose: 7.5 mg/kg/injection, schedule: Q01DX005 (ip), vehicle: saline 98 % of control | dose: 15.0 mg/kg/injection, schedule: Q01DX005 (ip), vehicle: saline 100 % of control

O=C(NCCN(C(=O)C12CC3CC(CC(C3)C1)C2)c1ccc(F)cc1)C12CC3CC(CC(C3)C1)C2
inactive: dose: 6.25 mg/kg/injection, schedule: Q01DX009 (ip), vehicle: saline with Tween-80 105 % of control | [16] 92 % of control | [17] 100 % of control

C=C(Cl)CNc1ccccc1C(=O)OC
inactive: dose: 25.0 mg/kg/injection, schedule: Q04DX003 (ip), vehicle: Klucel (hydroxypropylcellulose) (HPC) 100 % of control | [21] 100 % of control and 103 % of control | [13] 100 % of control and 110 % of control | [14] 103 % of control and 106 % of control | [15] 100 % of control and 108 % of control

CN(C)c1ccc(N=C(C#N)c2ccc(Cl)cc2)cc1
inactive: [21] 99 % of control | [13] 96 % of control | [14] 103 % of control | [15] 96 % of control

O=C1CSC(c2c(F)cccc2Cl)N1c1ncccn1 (stereo not drawn)
inactive: [19] 109 % of control | [20] 111 % of control

CSC(=S)N/N=C(\C)c1cccc(C)n1
inactive: [6] 100 % of control | [7] 102 % of control | [8] 105 % of control | [3] 100 % of control | [4] 87 % of control | [5] 113 % of control

CCOC(=O)N1c2ccccc2SC1C#N (stereo not drawn)
inactive: [3] 97 % of control | [4] 92 % of control | [5] 105 % of control

CCC(c1ccc(OCCS(=O)(=O)Oc2ccc(C)cc2)cc1)C(CC)c1ccc(OCCS(=O)(=O)Oc2ccc(C)cc2)cc1 (stereo not drawn)
inactive: [18] 106 % of control | dose: 100.0 mg/kg/injection, schedule: Q01DX009 (ip), vehicle: saline 87 % of control | dose: 200.0 mg/kg/injection, schedule: Q01DX009 (ip), vehicle: saline 95 % of control

Reference: PubChem BioAssay AID330 (DTP/NCI, 2004)
